Test results from the NIST ThermoML archive (doi:10.1021/acs.jced.5b00011).
± gives the expanded uncertainty stated by the source. Values belong to the molecule of their own block, whether it stands above or below them.

Conditions: Liquid, Ebulliometric method (Recirculating still)

vapor or sublimation pressure (353.25 K): 101.33 ± 0.55 kPa
SMILES: c1ccccc1 [benzene]

vapor or sublimation pressure (353.85 K): 101.33 ± 0.55 kPa
SMILES: C1CCCCC1 [cyclohexane]

vapor or sublimation pressure (356.15 K): 101.33 ± 0.55 kPa
SMILES: C1=CCCCC1 [cyclohexene]

vapor or sublimation pressure (439.25 K): 101.33 ± 0.58 kPa
SMILES: CC(=O)N(C)C [N,N-dimethylethanamide]
